SMILES strings stand for the structures. pIC50: −log10 of the molar value. Some results are limits rather than exact numbers.

For one experiment, the system named is 8XTBD luciferase reporter (YAP reporter) in HEK293T cells. The experiment is described as follows: YAP Reporter Assay. As to conditions: Homo sapiens, HEK-293T, 24 h, read-out: Firefly Luciferase IC50 (μM). Format: cell-based. How it is done:
HEK293T cells stably transfected with 8XTBD luciferase reporter and pRLTK in 384-well plates were treated with the test compounds, starting from 3 μM (final concentration in assay plate), 1:3 dilution, and 10 points in quadruplicates. Post 24-hr incubation with compounds at 37° C. and 5% CO2, cells were lysed and 8XTBD-driven firefly luciferase and control TK-driven renilla luciferase activities were measured using Promega Dual-Luciferase Reporter Assay System.
Reagents: The reagents used for this study are: DMEM: Invitrogen #11960077, Dual-Glo Luciferase Assay System: Promega-E2980, Puromycin Dihydrochloride: Invitrogen-A1113803, 384-well plate: PerkinElmer-6007480, L-GLUTAMINE: Invitrogen-25030164, Hygromycin B: Invitrogen-10687010, and Penicillin-Streptomycin: Merk-TMS-AB2-C
Media: The media used for this assay were: Culture Medium: DMEM+1 ug/mL puromycin+200 ug/mL hygromycin (with 10% FBS+1 mM L-glutamine); and Assay Medium: DMEM (with 10% FBS+1 mM L-glutamine+1×P/S).
Cell Plating: The appropriate media was warmed at 37° C. by water bath: Culture Medium, Assay Medium, 1*D-PBS, 0.05% trypsin-EDTA. The cells were trypsinized after removing all media, then washed with 1*sterile D-PBS and then with 2 ml 0.05% trypsin-EDTA. The cells were then incubated at RT for one minute. Then 10 ml/75 cm2 flask Assay Medium was added to each flask. Using a 10 ml pipette, the cells were then gently resuspended in the media, until the clumps completely disappeared. The cells were then transferred into 50 ml centrifuge tubes and were centrifuged at 800 rpm for 5 mins. The medium was removed and the cells were resuspended with Assay Medium. An aliquot of cells was used to count the cell density (cells/ml). The cell suspension was then diluted with Assay Medium to a concentration of 6×10^4 cells/ml. 50 ul cells suspension was then plated to 384-well plate (PerkinElmer-6007480), 3×10^3 cells/well and the cells were incubated in an incubator at 37° C. 5% CO2.
Compound Treatment: In the afternoon (incubation of the plate with 3-4 hrs), the test compounds were added by Echo, starting from 3 uM (final concentration in the assay plate), 1:3 dilution, 10 points, quadruplicates. The plate was placed at 37° C. 5% CO2 incubator for 24 hrs.
Detection: The Dual-Glo Luciferase Reagent was prepared by transferring the contents of one bottle of Dual-Glo Luciferase Buffer to one bottle of Dual-Glo Luciferase Substrate to create the Dual-Glo Luciferase Reagent. Mixing was performed by inversion until the substrate was thoroughly dissolved. After mixing, the reagent was aliquoted into 15 ml tubes. In the afternoon (24 hrs post compound treatment), the DMEM+ medium in the 384 well plates were aspirated by Microplate Washer.
Measuring firefly luciferase activity: 20 ul Dual-Glo Luciferase Reagent was added to the 384-well plates. The plates were protected from light to prevent interference with the assay. The plates were shaken for 1 min followed centrifuging plates at 1000 rpm for 30 seconds. After waiting at least 10 minutes, the firefly luminescence was measured by Envision.
Measuring renilla luciferase activity: 20 ul Stop-Glo Reagent was added to the 384-well plates. The plates were shaken for 1 min and then centrifuged at 1000 rpm for 30 seconds. After waiting at least 10 minutes, the renilla luminescence was measured by Envision.
Compound IC50 and maximum inhibition on the firefly luciferase and renilla luciferase activities were reported separately.
In general, IC50 refers to the concentration at which inhibition is half-maximal. In the case of `CC(C)NC(=O)c1ccc2c(-c3ccc(C(F)(F)F)cc3)cc3scnc3c2c1` [Compound 68, N-isopropyl-5-(4-(trifluoromethyl)phenyl)naphtho[1,2-d]thiazole-8-carboxamide], the IC50 was below 0.1 µM.

Staying with this experiment, now noted: Homo sapiens, HEK-293T; HEK293T cells stably transfected with 8XTBD luciferase reporter and pRLTK; 24-hr incubation; top concentration 3 μM; read-out: Firefly Luciferase IC50.
A word on the pIC50: it is −log10 of the IC50, conventionally taken in molar units. `O=C(NC(CCO)c1ccccn1)c1ccc2c(-c3ccc(C(F)(F)F)cc3)cccc2c1` (centres unmarked) [Compound 188, N-[3-hydroxy-1-(2-pyridyl)propyl]-5-[4-(trifluoromethyl)phenyl]naphthalene-2-carboxamide]: the pIC50 is above 7.00. With `C[C@H](NC(=O)c1ccc2c(-c3ccc(C(F)(F)F)cc3)cccc2c1)C1CNC1` [Compound 204, (S)—N-(1-(azetidin-3-yl)ethyl)-5-(4-(trifluoromethyl)phenyl)-2-naphthamide], the pIC50 was 6.00 to 7.00.

As for `C[C@@H](CN)NC(=O)c1ccc2c(-c3ccc(C(F)(F)F)cc3)cccc2c1` [Compound 59, (S)—N-(1-aminopropan-2-yl)-5-(4-(trifluoromethyl)phenyl)-2-naphthamide], the pIC50 is 6.00 to 7.00. In the case of `N#CCCNC(=O)c1ccc2c(-c3ccc(C(F)(F)F)cc3)cccc2c1` [Compound 114, N-(2-cyanoethyl)-5-(4-(trifluoromethyl)phenyl)-2-naphthamide], the pIC50 is above 7.00. `C[C@@H](NC(=O)c1ccc2c(-c3ccc(C(F)(F)F)cc3)cccc2c1)C1CN(CCF)C1` [Compound 144, (R)—N-(1-(1-(2-fluoroethyl)azetidin-3-yl)ethyl)-5-(4-(trifluoromethyl)phenyl)-2-naphthamide]: the pIC50 is 6.00 to 7.00. Regarding `O=C(NCc1ncns1)c1ccc2c(-c3ccc(C(F)(F)F)cc3)cccc2c1` [Compound 220, N-((1,2,4-thiadiazol-5-yl)methyl)-5-(4-(trifluoromethyl)phenyl)-2-naphthamide], the pIC50 was above 7.00.

In the case of `COc1cc(-c2ccc(C(F)(F)F)cc2)c2ccc(C(=O)N[C@H](C)c3ccccn3)cc2c1` [Compound 293, (R)-7-Methoxy-N-(1-(pyridin-2-yl)ethyl)-5-(4-(trifluoromethyl)phenyl)-2-naphthamide], the pIC50 is above 7.00.

For `C[C@H](NC(=O)c1ccc2c(-c3ccc(C(F)(F)F)cc3)cccc2c1)c1cccc2ccc(=O)[nH]c12` [Compound 178, N-[(1S)-1-(2-oxo-1H-quinolin-8-yl)ethyl]-5-[4-(trifluoromethyl)phenyl]naphthalene-2-carboxamide], the negative logarithm of the IC50 (pIC50) was 5.52 to 6.00. `N#CC(O)CCCCNC(=O)c1ccc2c(-c3ccc(C(F)(F)F)cc3)cccc2c1` (centres unmarked) [Compound 231, N-(5-cyano-5-hydroxy-pentyl)-5-[4-(trifluoromethyl)phenyl]naphthalene-2-carboxamide]: the pIC50 is 6.00 to 7.00. On the same count and under the same terms, in the case of `O=C(O)c1ccc2c(-c3ccc(C(F)(F)F)cc3)cncc2c1` [Compound 336, 4-[4-(trifluoromethyl)phenyl]isoquinoline-7-carboxylic Acid] it was 6.00 to 7.00. With `O=C(NC1(CO)CC1)c1ccc2c(-c3ccc(C(F)(F)F)cc3)cccc2c1` [Compound 257, N-(1-(hydroxymethyl)cyclopropyl)-5-(4-(trifluoromethyl)phenyl)-2-naphthamide], the pIC50 was above 7.00. Still for that read-out and setting: the figure for `CC(C)NC(=O)c1cnc2c(-c3ccc(C(F)(F)F)cc3)cccc2n1` [Compound 268, N-Isopropyl-5-(4-(trifluoromethyl)phenyl)quinoxaline-2-carboxamide] is 6.00 to 7.00. Turning to `CC(C)NC(=O)c1ccc2c(-c3ccc(C(F)(F)F)cc3)cc3ncnn3c2c1` [Compound 300, N-Isopropyl-5-(4-(trifluoromethyl)phenyl)-[1,2,4]triazolo[1,5-a]quinoline-8-carboxamide], the pIC50 was 6.00 to 7.00.

In the case of `O=C(N[C@@H](CO)c1ccccn1)c1ccc2c(-c3ccc(C(F)(F)F)cc3)cccc2c1` [Compound 163, N-[(1R)-2-hydroxy-1-(2-pyridyl)ethyl]-5-[4-(trifluoromethyl)phenyl]naphthalene-2-carboxamide], the pIC50 is above 7.00. The same measure, in the same setting: in the case of `CNCCNC(=O)c1ccc2c(-c3ccc(C(F)(F)F)cc3)cccc2c1` [Compound 124, N-(2-(methylamino)ethyl)-5-(4-(trifluoromethyl)phenyl)-2-naphthamide] it was 6.00 to 7.00; in that of `C[C@H](CCO)NC(=O)c1ccc2c(-c3ccc(C(F)(F)F)cc3)cccc2c1` [Compound 167, N-[(1R)-3-hydroxy-1-methyl-propyl]-5-[4-(trifluoromethyl)phenyl]naphthalene-2-carboxamide], above 7.00; in that of `CCOc1cc(-c2ccc(C(F)(F)F)cc2)c2ncc(C(=O)NS(C)(=O)=O)cc2c1` [Compound 81, 6-ethoxy-N-(methylsulfonyl)-8-(4-(trifluoromethyl)phenyl)quinoline-3-carboxamide], 6.00 to 7.00. As to `O=C(NCCO)c1ccc2c(-c3ccc(C(F)(F)F)cc3)cccc2c1` [Compound 86, N-(2-hydroxyethyl)-5-(4-(trifluoromethyl)phenyl)-2-naphthamide], the pIC50 was above 7.00. Regarding `C[C@@H](NC(=O)c1ccc2c(-c3ccc(C(F)(F)F)cc3)cccc2c1)c1cccc2nc[nH]c12` [Compound 173, N-[(1R)-1-(3H-benzimidazol-4-yl)ethyl]-5-[4-(trifluoromethyl)phenyl]naphthalene-2-carboxamide], the pIC50 was 6.00 to 7.00.

On to `COc1cc(-c2ccc(C(F)(F)F)cc2F)c2ncc(C(=O)N[C@H](C)CO)cc2c1` [Compound 233, (R)-8-(2-Fluoro-4-(trifluoromethyl)phenyl)-N-(1-hydroxypropan-2-yl)-6-methoxyquinoline-3-carboxamide], for which the pIC50 is above 7.00. As for `O=C(NCCCCCO)c1ccc2c(-c3ccc(C(F)(F)F)cc3)cccc2c1` [Compound 238, N-(5-hydroxypentyl)-5-[4-(trifluoromethyl)phenyl]naphthalene-2-carboxamide], the pIC50 was 6.00 to 7.00.

Turning to `CC(C)NC(=O)c1ccc2c(-c3ccc(C(F)(F)F)cc3)cc(NS(C)(=O)=O)cc2c1` [Compound 52, N-isopropyl-7-(methylsulfonamido)-5-(4-(trifluoromethyl)phenyl)-2-naphthamide], the pIC50 is above 7.00. In the case of `COc1cc(-c2ccc(C(F)(F)F)cc2)c2ncc(C(=O)NC(C)C)cc2c1` [Compound 97, N-isopropyl-6-methoxy-8-[4-(trifluoromethyl)phenyl]quinoline-3-carboxamide], the pIC50 is above 7.00. Take `COC[C@@H](C)NC(=O)c1cnc2c(-c3ccc(C(F)(F)F)cc3)cccc2c1` [Compound 100, (R)—N-(1-methoxypropan-2-yl)-8-(4-(trifluoromethyl)phenyl)quinoline-3-carboxamide]: the pIC50 is 6.00 to 7.00.

On to `O=C(NC(CO)Cc1ccccn1)c1ccc2c(-c3ccc(C(F)(F)F)cc3)cccc2c1` (centres unmarked) [Compound 197, N-(1-hydroxy-3-(pyridin-2-yl)propan-2-yl)-5-(4-(trifluoromethyl)phenyl)-2-naphthamide], for which the pIC50 is 6.00 to 7.00.

As for `COc1cc(-c2ccc(C(F)(F)F)cc2F)c2ncc(C(=O)N[C@@H](C)c3ccccn3)cc2c1` [Compound 232, (S)-8-(2-Fluoro-4-(trifluoromethyl)phenyl)-6-methoxy-N-(1-(pyridin-2-yl)ethyl)quinoline-3-carboxamide], the pIC50 is above 7.00. With `O=C(NCc1ccncn1)c1ccc2c(-c3ccc(C(F)(F)F)cc3)cccc2c1` [Compound 185, N-(pyrimidin-4-ylmethyl)-5-(4-(trifluoromethyl)phenyl)-2-naphthamide], the pIC50 was above 7.00. Regarding `NC(=O)/C=C/CCCNC(=O)c1ccc2c(-c3ccc(C(F)(F)F)cc3)cccc2c1` [Compound 202, N-[(E)-6-amino-6-oxo-hex-4-enyl]-5-[4-(trifluoromethyl)phenyl]naphthalene-2-carboxamide], the pIC50 was 6.00 to 7.00.

These data come from patent US11866431B2, “Bicyclic compounds” (Vivace Therapeutics, Inc., priority 2018, dated 2024).
